# Test results reported in patent publication US10544104B2, “Compositions and methods for treating toxoplasmosis, cryptosporidiosis, and other apicomplexan protozoan related diseases” (University of Washington through its Center for …, priority 2010, dated 2020).
# Key:
# human fibroblast = assay: Fibroblast cytotoxicity / replication (Alamar blue); type: cell-based; settings: concentration at which toxicity (T) was observed
# TgCDPK1 = TgCDPK1 (Toxoplasma gondii, UniProt Q9BJF5); type: biochemical
# Chain of TgCDPK1 (Q9BJF5 1-507): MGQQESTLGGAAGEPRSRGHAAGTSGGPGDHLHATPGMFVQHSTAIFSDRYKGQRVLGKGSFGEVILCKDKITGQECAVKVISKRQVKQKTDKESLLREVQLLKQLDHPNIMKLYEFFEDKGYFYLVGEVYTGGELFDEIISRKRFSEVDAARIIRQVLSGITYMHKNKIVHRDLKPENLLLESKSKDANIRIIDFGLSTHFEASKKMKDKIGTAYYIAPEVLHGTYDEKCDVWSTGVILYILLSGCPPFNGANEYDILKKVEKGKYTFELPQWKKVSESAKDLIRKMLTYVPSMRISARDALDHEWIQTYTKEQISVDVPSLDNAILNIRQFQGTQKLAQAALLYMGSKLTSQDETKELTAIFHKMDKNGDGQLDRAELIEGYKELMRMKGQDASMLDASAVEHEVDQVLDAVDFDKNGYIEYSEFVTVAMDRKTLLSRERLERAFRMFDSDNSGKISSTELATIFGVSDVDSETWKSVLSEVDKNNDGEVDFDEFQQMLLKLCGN
# P. falciparum = assay: microbe, parasite or virus in culture; settings: Plasmodium falciparum, read-out: Proliferation Blocking P. falciparum (EC50, μM)
# in vitro [1] = settings: human, CRL8155 human lymphocyte cells
# in vitro [2] = settings: human, HL-60 human promyelocytic leukemia cells
# in vitro [3] = settings: human, SF539 glioma-derived cells
# in vitro [4] = settings: human, HCC2998 (HC 2998) colorectal carcinoma cells
structure (smiles),measurement,setting,value
"CC(C)COc1ccc2cc(-c3nn(CC4CCNCC4)c4ncnc(N)c34)ccc2c1 [Compound 44, 3-(6-isobutoxynaphthalen-2-yl)-1-(piperidin-4-ylmethyl)-1H-pyrazolo[3,4-d]pyrimidin-4-amine]",Observed HFF Toxicity (T at concentration),human fibroblast,T at 100 μM
"CC(C)n1nc(-c2cccc(Cl)c2)c2c(N)ncnc21 [Compound 7b, 3-(3-chlorophenyl)-1-isopropyl-1H-pyrazolo[3,4-d]pyrimidin-4-amine]",selectivity TgCDPK1 versus CpCDPK1 (in words),TgCDPK1,more potent against TgCDPK1 than CpCDPK1
[Ca+2] [calcium],EC50,TgCDPK1; read-out: calcium concentration giving 50% of TgCDPK1 kinase activity,4.7 µM
"CC(C)(C)n1nc(-c2ccc(NC(=O)C3CCCC3)cc2)c2c(N)ncnc21 [Compound 63, N-(4-(4-amino-1-tert-butyl-1H-pyrazolo[3,4-d]pyrimidin-3-yl)phenyl)cyclopentanecarboxamide]",EC50,P. falciparum,> 10 µM
"Nc1ncnc2c1c(-c1ccc3cc(OCc4ccccc4)ccc3c1)nn2CC1CCNCC1 [Compound 34, 3-(6-(benzyloxy)naphthalen-2-yl)-1-(piperidin-4-ylmethyl)-1H-pyrazolo[3,4-d]pyrimidin-4-amine]",Observed HFF Toxicity (T at concentration),human fibroblast,T at 100 μM
"Cc1cc(-c2nn(C(C)C)c3ncnc(N)c23)ccc1F [Compound 7i, 3-(4-fluoro-3-methylphenyl)-1-isopropyl-1H-pyrazolo[3,4-d]pyrimidin-4-amine]",inhibition of TgCDPK1 (in words),TgCDPK1,potent against both enzymes
Nc1ncnc2c1c(-c1ccc3oc(-c4ccccc4)nc3c1)nn2CC1CCNCC1 [Compound 120],Observed HFF Toxicity (T at concentration),human fibroblast,T at 25 μM
"COc1ccc(-c2nn(C(C)C)c3ncnc(N)c23)cc1OC [Compound 7k, 3-(3,4-dimethoxyphenyl)-1-isopropyl-1H-pyrazolo[3,4-d]pyrimidin-4-amine]",inhibition of TgCDPK1 (in words),TgCDPK1,potent against both enzymes
"CC(C)n1nc(-c2cnc3ccccc3c2)c2c(N)ncnc21 [Compound 7t, 1-isopropyl-3-(quinolin-3-yl)-1H-pyrazolo[3,4-d]pyrimidin-4-amine]",GI50,in vitro [1],> 10 µM
same,GI50,in vitro [3],> 10 µM
same,GI50,in vitro [4],> 10 µM
"CCOc1ccc2cc(-c3nn(C(C)C)c4ncnc(N)c34)ccc2c1 [Compound 7r, 3-(6-ethoxynaphthalen-2-yl)-1-isopropyl-1H-pyrazolo[3,4-d]pyrimidin-4-amine]",EC50,P. falciparum,> 50 µM
"CC(C)n1nc(-c2ccc(Cl)cc2)c2c(N)ncnc21 [Compound 7a, 3-(4-chlorophenyl)-1-isopropyl-1H-pyrazolo[3,4-d]pyrimidin-4-amine]",selectivity TgCDPK1 versus CpCDPK1 (in words),TgCDPK1,more potent against TgCDPK1 than CpCDPK1
"CC(C)n1nc(Cc2cccc3ccccc23)c2c(N)ncnc21 [Compound 3, 1-isopropyl-3-(naphthalen-1-ylmethyl)-1H-pyrazolo[3,4-d]pyrimidin-4-amine]",GI50,in vitro [1],[…]
same,GI50,in vitro [2],> 10 µM
same,GI50,in vitro [3],> 10 µM
same,GI50,in vitro [4],> 10 µM
"CCCCOc1ccc2cc(-c3nn(C(C)C)c4ncnc(N)c34)ccc2c1 [Compound 42, 3-(6-butoxynaphthalen-2-yl)-1-isopropyl-1H-pyrazolo[3,4-d]pyrimidin-4-amine]",Observed HFF Toxicity (T at concentration),human fibroblast,T at 100 μM
[Ca+2].[Cl-].[Cl-] [CaCl2],free CaCl2 at maximal activity,TgCDPK1,approximately 18 μM
"CCCOc1ccc2cc(-c3nn(CC4CCNCC4)c4ncnc(N)c34)ccc2c1 [Compound 33, 1-(piperidin-4-ylmethyl)-3-(6-propoxynaphthalen-2-yl)-1H-pyrazolo[3,4-d]pyrimidin-4-amine]",Observed HFF Toxicity (T at concentration),human fibroblast,T at 100 μM
"CC(C)(C)n1nc(Cc2cccc3ccccc23)c2c(N)ncnc21 [Compound 5d, 1-tert-butyl-3-(naphthalen-1-ylmethyl)-1H-pyrazolo[3,4-d]pyrimidin-4-amine]",GI50,in vitro [1],> 10 µM
same,GI50,in vitro [2],> 10 µM
same,GI50,in vitro [3],> 10 µM
same,GI50,in vitro [4],> 10 µM
"CSc1cccc(-c2nn(C(C)C)c3ncnc(N)c23)c1 [Compound 7ab, 1-isopropyl-3-(3-(methylthio)phenyl)-1H-pyrazolo[3,4-d]pyrimidin-4-amine]",selectivity TgCDPK1 versus CpCDPK1 (in words),TgCDPK1,more potent against TgCDPK1 than CpCDPK1
"C=CCOc1ccc2cc(-c3nn(CC4CCNCC4)c4ncnc(N)c34)ccc2c1 [Compound 36, 3-(6-(allyloxy)naphthalen-2-yl)-1-(piperidin-4-ylmethyl)-1H-pyrazolo[3,4-d]pyrimidin-4-amine]",Observed HFF Toxicity (T at concentration),human fibroblast,T at 100 μM
"COc1ccc2cc(-c3nn(C(C)C)c4ncnc(N)c34)ccc2c1 [Compound 7q, 1-isopropyl-3-(6-methoxynaphthalen-2-yl)-1H-pyrazolo[3,4-d]pyrimidin-4-amine]",EC50,P. falciparum,> 10 µM
same,GI50,in vitro [1],> 10 µM
same,GI50,in vitro [2],> 10 µM
same,GI50,in vitro [3],> 10 µM
same,GI50,in vitro [4],> 10 µM
"CCCC(=O)Nc1ccc(-c2nn(C(C)(C)C)c3ncnc(N)c23)cc1 [Compound 61, N-(4-(4-amino-1-tert-butyl-1H-pyrazolo[3,4-d]pyrimidin-3-yl)phenyl)butyramide]",EC50,P. falciparum,7 µM
"CCOc1ccc2cc(-c3nc(C(C)(C)C)n4ccnc(N)c34)ccc2c1 [Compound 69, 3-tert-butyl-1-(6-ethoxynaphthalen-2-yl)imidazo[1,5-a]pyrazin-8-amine]",Observed HFF Toxicity (T at concentration),human fibroblast,T at 25 μM
"CS(=O)(=O)N1CCC(n2nc(Cc3cccc4ccccc34)c3c(N)ncnc32)CC1 [Compound 5p, 1-(1-(methylsulfonyl)piperidin-4-yl)-3-(naphthalen-1-ylmethyl)-1H-pyrazolo[3,4-d]pyrimidin-4-amine]",GI50,in vitro [1],[…]
same,GI50,in vitro [2],> 10 µM
same,GI50,in vitro [3],> 10 µM
same,GI50,in vitro [4],> 10 µM
"CC(C)CC(=O)Nc1ccc(-c2nn(C(C)(C)C)c3ncnc(N)c23)cc1 [Compound 62, N-(4-(4-amino-1-tert-butyl-1H-pyrazolo[3,4-d]pyrimidin-3-yl)phenyl)-3-methylbutanamide]",EC50,P. falciparum,> 10 µM
"CC(C)n1nc(-c2ccc(Cl)c(Cl)c2)c2c(N)ncnc21 [Compound 7c, 3-(3,4-dichlorophenyl)-1-isopropyl-1H-pyrazolo[3,4-d]pyrimidin-4-amine]",inhibition of TgCDPK1 (in words),TgCDPK1,potent against both enzymes
same,GI50,in vitro [2],> 10 µM
same,GI50,in vitro [3],> 10 µM
same,GI50,in vitro [4],> 10 µM
"COc1ccc(-c2nn(C(C)C)c3ncnc(N)c23)cc1C [Compound 7m, 1-isopropyl-3-(4-methoxy-3-methylphenyl)-1H-pyrazolo[3,4-d]pyrimidin-4-amine]",inhibition of TgCDPK1 (in words),TgCDPK1,potent against both enzymes
"Nc1ncnc2c1c(-c1ccc3cc(OCc4ccccc4Cl)ccc3c1)nn2CC1CCNCC1 [Compound 37, 3-(6-(2-chlorobenzyloxy)naphthalen-2-yl)-1-(piperidin-4-ylmethyl)-1H-pyrazolo[3,4-d]pyrimidin-4-amine]",Observed HFF Toxicity (T at concentration),human fibroblast,T at 100 μM
"CC(C)(C)C(=O)Nc1ccc(-c2nn(C(C)(C)C)c3ncnc(N)c23)cc1 [Compound 60, N-(4-(4-amino-1-tert-butyl-1H-pyrazolo[3,4-d]pyrimidin-3-yl)phenyl)pivalamide]",EC50,P. falciparum,> 10 µM
"C#CCn1nc(Cc2cccc3ccccc23)c2c(N)ncnc21 [Compound 5b, 3-(naphthalen-1-ylmethyl)-1-(prop-2-ynyl)-1H-pyrazolo[3,4-d]pyrimidin-4-amine]",IC50,TgCDPK1,0.99 µM
"CCN1CCC(Cn2nc(Cc3cccc4ccccc34)c3c(N)ncnc32)CC1 [Compound 5n, 1-((1-ethylpiperidin-4-yl)methyl)-3-(naphthalen-1-ylmethyl)-1H-pyrazolo[3,4-d]pyrimidin-4-amine]",GI50,in vitro [1],> 10 µM
same,GI50,in vitro [2],> 10 µM
same,GI50,in vitro [4],> 10 µM
"Nc1ncnc2c1c(-c1ccc3cc(OCc4cccc(Cl)c4)ccc3c1)nn2CC1CCNCC1 [Compound 38, 3-(6-(3-chlorobenzyloxy)naphthalen-2-yl)-1-(piperidin-4-ylmethyl)-1H-pyrazolo[3,4-d]pyrimidin-4-amine]",Observed HFF Toxicity (T at concentration),human fibroblast,T at 100 μM
"Nc1ncnc2c1c(Cc1cccc3ccccc13)nn2CC1CCNCC1 [Compound 5h, 3-(naphthalen-1-ylmethyl)-1-(piperidin-4-ylmethyl)-1H-pyrazolo[3,4-d]pyrimidin-4-amine]",GI50,in vitro [1],> 10 µM
same,GI50,in vitro [2],> 10 µM
same,GI50,in vitro [3],> 10 µM
same,GI50,in vitro [4],> 10 µM
"C=CCOc1ccc2cc(-c3nn(C(C)C)c4ncnc(N)c34)ccc2c1 [Compound 41, 3-(6-(allyloxy)naphthalen-2-yl)-1-isopropyl-1H-pyrazolo[3,4-d]pyrimidin-4-amine]",Observed HFF Toxicity (T at concentration),human fibroblast,T at 100 μM
"CC(C)n1nc(-c2ccc3cc(OCc4ccccc4)ccc3c2)c2c(N)ncnc21 [Compound 40, 3-(6-(benzyloxy)naphthalen-2-yl)-1-isopropyl-1H-pyrazolo[3,4-d]pyrimidin-4-amine]",Observed HFF Toxicity (T at concentration),human fibroblast,T at 100 μM
"COc1cc(-c2nn(C(C)C)c3ncnc(N)c23)cc(OC)c1OC [Compound 7l, 1-isopropyl-3-(3,4,5-trimethoxyphenyl)-1H-pyrazolo[3,4-d]pyrimidin-4-amine]",selectivity TgCDPK1 versus CpCDPK1 (in words),TgCDPK1,equipotent or slightly selective for CpCDPK1
"CC(C)n1nc(-c2ccc3ccccc3c2)c2c(N)ncnc21 [Compound 7p, 1-isopropyl-3-(naphthalen-2-yl)-1H-pyrazolo[3,4-d]pyrimidin-4-amine]",GI50,in vitro [1],> 10 µM
same,GI50,in vitro [2],> 10 µM
same,GI50,in vitro [3],> 10 µM
same,GI50,in vitro [4],~10 µM
"CC(C)c1ccc(-c2nn(C(C)C)c3ncnc(N)c23)cc1 [Compound 7d, 1-isopropyl-3-(4-isopropylphenyl)-1H-pyrazolo[3,4-d]pyrimidin-4-amine]",selectivity TgCDPK1 versus CpCDPK1 (in words),TgCDPK1,more potent against TgCDPK1 than CpCDPK1
